This is an account of results in US6232070A, “Pharmacological targeting of mRNA cap formation” (priority 1999, dated 2001).

Test [1] deals with T1, Mce1(1-210)p (Mus musculus, UniProt O55236).
T1 construct: The N-terminal portion of Mce1p from residues 1-210 is an autonomous RNA triphosphatase domain; made in house; host or cells: bacteria
T1 sequence (O55236 1-210): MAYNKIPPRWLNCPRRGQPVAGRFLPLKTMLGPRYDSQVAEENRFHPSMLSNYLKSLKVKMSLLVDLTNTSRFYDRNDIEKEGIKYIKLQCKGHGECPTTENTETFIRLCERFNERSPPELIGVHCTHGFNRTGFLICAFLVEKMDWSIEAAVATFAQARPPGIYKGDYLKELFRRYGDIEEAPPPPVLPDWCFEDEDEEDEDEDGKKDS
The note with it: at 0.5 mM divalent cation; 50 mM Tris buffer; cited from earlier work.

In test [2] the target is T2, Hcm1p (Homo sapiens, UniProt O43148).
T2 construct: Δ120 retained 50% of the activity of full-length Hcm1p; His-tag (histidine-rich leader segment, pET16b) (N); made in house; host or cells: Escherichia coli BL21(DE3)
T2 sequence (O43148 whole entry): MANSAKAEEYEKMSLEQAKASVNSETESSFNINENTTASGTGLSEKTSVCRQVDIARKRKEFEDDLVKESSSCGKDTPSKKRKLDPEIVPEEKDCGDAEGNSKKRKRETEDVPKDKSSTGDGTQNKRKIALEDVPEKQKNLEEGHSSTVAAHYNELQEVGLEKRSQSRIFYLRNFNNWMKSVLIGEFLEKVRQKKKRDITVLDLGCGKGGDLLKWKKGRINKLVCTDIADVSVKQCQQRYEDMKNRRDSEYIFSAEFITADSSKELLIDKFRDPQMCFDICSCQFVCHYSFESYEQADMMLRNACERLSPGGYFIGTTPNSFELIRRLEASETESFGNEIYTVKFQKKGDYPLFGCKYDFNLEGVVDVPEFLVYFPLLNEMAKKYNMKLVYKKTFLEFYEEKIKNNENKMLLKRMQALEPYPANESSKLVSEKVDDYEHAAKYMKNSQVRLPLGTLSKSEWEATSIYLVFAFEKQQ
In words: Cap methyltransferase activity of recombinant Hcm1p, methylation of cap-labeled poly(A). It counts as biochemical.

Test [3] deals with vaccinia triphosphatase (Vaccinia virus, UniProt P04298). The note with it: reported value; read-out: Km for ATP; cited from earlier work.
For test [4], the target named is LEF-4 (Autographa californica nuclear polyhedrosis virus, UniProt P41477). The note with it: reported value; read-out: Km for ATP; cited from earlier work.
Sequence of LEF-4 (P41477 whole entry): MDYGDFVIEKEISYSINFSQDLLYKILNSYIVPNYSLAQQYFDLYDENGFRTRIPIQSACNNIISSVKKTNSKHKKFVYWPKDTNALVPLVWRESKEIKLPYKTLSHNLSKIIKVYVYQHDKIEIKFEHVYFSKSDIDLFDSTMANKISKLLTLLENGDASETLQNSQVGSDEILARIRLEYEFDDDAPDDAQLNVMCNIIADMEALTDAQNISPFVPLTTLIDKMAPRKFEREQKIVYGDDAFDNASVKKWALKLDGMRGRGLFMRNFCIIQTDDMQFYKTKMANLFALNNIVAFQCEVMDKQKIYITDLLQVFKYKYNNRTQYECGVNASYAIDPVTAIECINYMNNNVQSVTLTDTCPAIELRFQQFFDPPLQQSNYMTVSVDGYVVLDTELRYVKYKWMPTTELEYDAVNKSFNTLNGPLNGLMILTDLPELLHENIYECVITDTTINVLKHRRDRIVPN

As to `[Cl-].[Cl-].[Mg+2]` [MgCl2], the “inhibition of RNA triphosphatase activity” value in test [1] is given as 75%. In test [2] (1 mM magnesium), the reduction of methylation result was “an order of magnitude”. For `[Cl][Mn][Cl]` [MnCl2], the “inhibition of RNA triphosphatase activity” value in test [1] is 75%.

With `Nc1ncnc2c1ncn2[C@@H]1O[C@H](COP(=O)(O)OP(=O)(O)OP(=O)(O)O)[C@@H](O)[C@H]1O` [ATP], the values for the Km in test [3] and in test [4] were 800 µM and 43 µM, respectively. With `Nc1ncnc2c1ncn2[C@@H]1O[C@H](CSCC[C@H](N)C(=O)O)[C@@H](O)[C@H]1O` [AdoHcy, S-adenosylhomocysteine], the “effect on cap methylation in the presence of AdoMet” value in test [2] (500 μM AdoHcy plus 50 μM AdoMet (FIG. 9, lane 4)) is “partially inhibitory”. Consider `C[S+](CC[C@H](N)C(=O)O)C[C@H]1O[C@@H](n2cnc3c(N)ncnc32)[C@H](O)[C@@H]1O` (stereo partly shown) [AdoMet, S-adenosylmethionine], for which the Km in test [2] (read-out: AdoMet concentration giving half-maximal activity, cap methylation as a function of AdoMet concentration) is ~25 µM.
